“Also recorded” adds a separate entry of the source. Numbered stars: 1 amine (or outer) side, 2 acyl side, 3 side chain; on linkers, the order of the positions; unused ones are H or OH. Square brackets hold non-standard residues; d marks the D form. Ends that are not written are not given here. γGlu = O=C(O)[C@H](CCC(=O)[*:2])N[*:1]
Columns and labels:
[1] = system: SOD2 mRNA; experiment: SOD2 mRNA expression level by real-time PCR in Tert-BHP-treated HEK293 cells; assay type: cell-based; details: Tert-BHP 300 μM, peptide 500 μM, 18 hours; for effect on SOD2 mRNA expression: FIG. 6; for SOD2 mRNA expression compared to positive control GSH: vs GSH
Protocol: The expression of SOD2 mRNA as another antioxidant factor was determined. The cell line culture, RNA extraction, cDNA synthesis and PCR experiments were performed in the same manner as in Experimental Example 5 above. A detailed description thereof is given below.
(§1) An HEK293 cell (kidney cell) line was seeded at a density of 6.6×10^5/well in DMEM (Dulbecco's Modified Eagle's Medium) medium on a 6-well plate and cultured at 37° C. and 5% CO2 for 24 hours. The next day, the medium was exchanged with serum and amino-acid-free media, and then the cells were further cultured for 20 hours or longer. The cells were treated with Tert-BHP (300 μM) and 500 μM 100 types of peptides, and then cultured for 18 hours.
RNA was extracted from the cells treated with 100 types of peptides in (1) using TRIzol (Thermo Fisher Scientific). A GoScript™ Reverse Transcription System (Promega, Wisconsin, USA) was used to synthesize cDNA from the RNA. The cDNA was synthesized by performing annealing with 1 μg RNA, 0.5 μg of an oligo dt primer, 0.5 μg of a random primer, and RT-PCR pre-mixture at 25° C. for 5 minutes, extension at 42° C. for 60 minutes, and inactivation at 70° C. for 15 minutes.
(§2) PCR was performed using Maxime™ PCR PreMix (i-StarTaq) (Intron Biotechnology, Korea). Real-time PCR was performed using SsoAdvanced™ Universal SYBR® Green Supermix (Bio-Rad, USA). 100 ng of cDNA, 2 μM (pmol/μl) primers, 10 μl of 2X SsoAdvanced™ Universal SYBR® Green Supermix and DW were added to the PCR plate well. Then, the temperature was cyclically adjusted to 95° C. for 3 minutes, 95° C. for 10 seconds and 58° C. for 40 seconds for a total of 40 cycles. A PCR reaction was performed using the CFX96 Touch™ Real-Time PCR Detection System (Bio-Rad, California, USA), and fluorescence intensity was measured at the end of each cycle.

[2] = system: Nrf2 mRNA; experiment: Nrf2 mRNA expression level by real-time PCR in Tert-BHP-treated HEK293 cells; assay type: cell-based; details: Tert-BHP 300 μM, peptide 500 μM, 18 hours; for effect on expression of Nrf2 mRNA: FIGS. 5A to 5C; for Nrf2 mRNA expression compared to positive control GSH: vs GSH
Protocol: In the present invention, the antioxidant activity was compared between the 100 types of peptides, and the change in Nrf2 mRNA expression was measured through PCR in order to select the final peptide.
as §1, with “C. under” for “C. and”
RNA was extracted from the cells treated with 100 types of peptides in (1) using TRIzol (Thermo Fisher Scientific). A GoScript™ Reverse Transcription System (Promega, Wisconsin, USA) was used to synthesize cDNA from the RNA. The cDNA was synthesized by performing annealing using 1 μg of RNA, 0.5 μg of an oligo dt primer, 0.5 μg of a random primer and RT-PCR pre-mixture at 25° C. for 5 minutes, extension at 42° C. for 60 minutes, and inactivation at 70° C. for 15 minutes.
as §2, with “using a” for “using the”

[3] = Reducing power assay (method of Oyaizu); details: peptides; vs GSH
Protocol: 3. Reducing Power Assay Method
The reducing power of yeast hydrolysates was measured using the method of Oyaizu (1986). Specifically, a sample (1-5000 μg/ml, 60 μl) dissolved in distilled water was mixed with phosphate buffer (150 μl, 0.2M, pH 6.6) and potassium ferricyanide (K 3 Fe(CN) 6, 150 μl, 1%), followed by reacting at 50° C. for 20 minutes. Further, 150 μl of trichloroacetic acid (10%) was added thereto, followed by centrifugation at 2,000 g for 10 minutes. 150 μl of the supernatant containing the sample was added to 150 μl of DW and FeCl3 (30 μl, 0.1%). The resulting mixture was allowed to react at 25° C. for 10 minutes, and absorbance was measured at 700 nm.
(§3) The DPPH-scavenging ability and reducing power of the fractions of respective yeast hydrolyzates (Preparation Examples 1 to 4) were measured using the same method of measuring DPPH-scavenging ability and reducing power as in Experimental Example 1.

[4] = DPPH-scavenging ability assay; assay type: biochemical; details: peptides; vs GSH
Protocol: 2. DPPH (2,2-Diphenyl-1-Picryl-Hydrazyl-Hydrate) Assay Method
The antioxidant activity due to the DPPH-scavenging ability of yeast hydrolyzates was measured using the methods of Choi Chang-seop et al. (2003) and Shekhar et al. (2014). 20 μl of a sample (1 to 5000 μg/ml) dissolved in distilled water was added to 180 μl of an ethanol solution containing DPPH (0.111 mM). The resulting mixture was allowed to react at 25° C. for 30 minutes, and absorbance was measured at 517 nm. Ascorbic acid was used to create the standard curve, and DPPH-scavenging ability (%) was calculated and expressed by the equation of [(absorbance upon no addition of sample−absorbance of sample)/absorbance upon no addition of sample]×100.
as §3

Substance | effect on SOD2 mRNA expression [1] | SOD2 mRNA expression compared to positive control GSH [1] | effect on expression of Nrf2 mRNA [2] | Nrf2 mRNA expression compared to positive control GSH [2] | reducing power of peptide compared to GSH [3] | DPPH-scavenging ability of peptide compared to GSH [4]
γ-GLU-VAL-CYS ([γGlu]-Val-Cys; also: gamma-glutamyl isopeptide bond (Glu side chain to Val)) | increased SOD2 mRNA expression | remarkably excellent; also recorded: statistically significant activity | improve the expression of Nrf2 mRNA | remarkably excellent effect; also recorded: statistically significant activity; also recorded: comparable or superior to GSH | comparable or superior to GSH | comparable or superior to GSH
γ-GLU-THR-GLY ([γGlu]-Thr-Gly; also: gamma-glutamyl isopeptide bond (Glu side chain to Thr)) | increased SOD2 mRNA expression | remarkably excellent; also recorded: statistically significant activity | improve the expression of Nrf2 mRNA | remarkably excellent effect; also recorded: statistically significant activity; also recorded: comparable or superior to GSH | comparable or superior to GSH | comparable or superior to GSH
γ-GLU-GLN-GLU ([γGlu]-Gln-Glu) | increased SOD2 mRNA expression | remarkably excellent; also recorded: statistically significant activity | improve the expression of Nrf2 mRNA | remarkably excellent effect; also recorded: statistically significant activity; also recorded: comparable or superior to GSH | comparable or superior to GSH | comparable or superior to GSH

— patent US11925672B2, “Peptide having antioxidant activity and composition containing same” (SEMPIO FOODS COMPANY, priority 2018, dated 2024)
